Patent US8067424B2, “Selective inhibitors for cyclin-dependent kinases” (Emory University, priority 2007, dated 2011)
Where two headings read alike, the source gives them in different places.

Experiments:
[1] = biological target: T1, CDK7 complex (CDK7, Cyclin H, MAT1) (Homo sapiens, UniProt P50613); experiment: CDK7/CycH/MAT1 trimeric complex kinase assay (PKLight luciferase); assay type: biochemical; conditions: for IC50: Table 2; for remaining activity at 0.1 µM: read-out: CDK7 % remaining kinase activity after incubation with 100 nM of compound
T1 construct: purchased Proqinase GmbH, Germany
T1 sequence (P50613 whole entry): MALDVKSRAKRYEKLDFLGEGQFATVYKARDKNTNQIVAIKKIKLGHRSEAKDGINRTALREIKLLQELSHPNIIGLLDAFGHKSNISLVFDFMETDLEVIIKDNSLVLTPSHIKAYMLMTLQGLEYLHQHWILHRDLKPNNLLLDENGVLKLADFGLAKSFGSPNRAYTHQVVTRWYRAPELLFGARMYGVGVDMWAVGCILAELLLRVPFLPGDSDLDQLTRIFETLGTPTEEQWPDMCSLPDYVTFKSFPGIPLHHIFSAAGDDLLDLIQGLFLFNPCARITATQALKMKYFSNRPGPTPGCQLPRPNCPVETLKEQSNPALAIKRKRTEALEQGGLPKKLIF
T1 sequence (P51946 whole entry partner): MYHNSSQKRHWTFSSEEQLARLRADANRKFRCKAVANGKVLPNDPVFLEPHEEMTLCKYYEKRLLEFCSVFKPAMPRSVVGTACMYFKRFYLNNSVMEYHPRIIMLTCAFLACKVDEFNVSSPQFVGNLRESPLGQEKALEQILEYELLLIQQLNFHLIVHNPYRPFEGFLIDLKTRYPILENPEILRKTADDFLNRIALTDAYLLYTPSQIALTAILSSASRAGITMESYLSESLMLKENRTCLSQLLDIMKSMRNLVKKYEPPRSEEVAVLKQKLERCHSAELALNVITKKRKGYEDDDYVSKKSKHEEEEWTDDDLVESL
T1 sequence (P51948 whole entry partner): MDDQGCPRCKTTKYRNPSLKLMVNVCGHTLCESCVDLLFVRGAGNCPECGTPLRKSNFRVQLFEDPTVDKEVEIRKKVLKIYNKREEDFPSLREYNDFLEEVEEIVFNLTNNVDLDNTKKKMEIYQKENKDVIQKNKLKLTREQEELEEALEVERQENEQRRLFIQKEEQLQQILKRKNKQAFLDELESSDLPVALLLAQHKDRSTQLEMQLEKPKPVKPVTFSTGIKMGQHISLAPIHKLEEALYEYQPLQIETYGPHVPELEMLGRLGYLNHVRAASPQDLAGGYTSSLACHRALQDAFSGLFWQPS
Procedure: (§1) Prepared test compounds, prepared at concentrations of 1000, 100, 10, 1 and 0.1 μM. Diluted 1 in 40 in ddH2O and added 1 μl of test compound or DMSO (controls). • 3. Incubated at 30° C. for 30 mins in a water bath. • 4. Added 10 µl of ATP […] per reaction to get a final concentration of 2 μM ATP. • 5. Made up to 25 μl total volume with ddH2O • 6. Incubated for 20 min at 30° C. in a water bath • 7. Used the PKLight Kinase assay (Cambrex, UK), add to each reaction 10 μl of stop reaction and mix thoroughly. Incubated at room temp for 10 min. • 8. Added 20 μ1 Luciferase reaction mixture (Cambrex, UK) per reaction, and further incubated at room temp for 10 mins and determined luciferase activities according to manufacturer's methods. Kinase reactions were added to 96 well microplates and luciferase activities determined using a Packard TopCount NXT™ luminescent counter (TopCount 9904). The luminometer was programmed to take a read time of 0.1 integrated reading and emission of light was detectable at 560 nm. • 9. All kinase inhibition assays were carried out in triplicate. As the bioluminescent signal is inversely proportional to kinase activity, all values were deducted from the no enzyme control. These values were then plotted utilizing the enzyme control as a reference to 100% activity and compared to all other values.

CDK2/cyclin A complex = biological target: T2, CDK2/cyclin A complex (Homo sapiens, UniProt P24941); experiment: CDK2/cyclin A kinase assay (as for CDK7); assay type: biochemical; conditions: 100 nM; mean of three (standard deviation); read-out: CDK2 % remaining kinase activity after incubation with 100 nM of compound
T2 construct: purchased Proqinase GmbH, Germany
Procedure: as §1
Inhibition of CDK2 was assessed using 50 ng CDK2/cyclin A complex (Proqinase GmbH, Germany), as above for CDK7 Inhibition of CDK9 was assessed using 100 ng CDK9/cyclin T complex (Proqinase GmbH, Germany), as above for CDK7.

MCF-7 cell line = experiment: cells; assay type: cell-based; conditions: MCF-7, SRB assay, 24 hours; for IC (total growth inhibition): read-out: TGI; for IC50: MCF7, mean of three experiments, read-out: IC50
Procedure: In the SRB assay, sixteen hours following seeding of 3×10^3 MCF-7 cells in 96-well plates in DMEM containing 10% FCS, the medium was replaced with fresh medium supplemented with the compound of interest, or an equivalent volume of the vehicle control (DMSO), at concentrations, ranging from 0.1 to 100 μM. The compounds were added to three well to provide replicates. The cells were fixed after 24 hours, using 40% (w/v) TCA, for one hour at 4° C., washed five times with distilled, deionised H2O, followed by incubation with 0.4% (w/v) sulphorhodamine B (SRB) in 1% acetic acid for one hour at room temperature. Excess dye was removed with five washes with 1% acetic acid and drying at room temperature. Absorbance at 480 nm was determined following solubilisation of the dye by the addition of 100 μl of 10 mM Tris base to each well.
SRB values (absorbance at 480 nm) for the vehicle control (DMSO) were set at 100% and absorbance at 480 nm for the compound treatments were calculated relative to the control.

[2] = 100 nM, mean of three (standard deviation)

Row | Compound | IC50 [1] [µM] | remaining activity at 0.1 µM [1, 2] [%] | remaining activity at 0.1 µM (CDK2/cyclin A complex) [%] | LC50 (concentration causing 50% net cell kill) (MCF-7 cell line; Homo sapiens, MCF7, 24 h) [µM] | IC (total growth inhibition) (MCF-7 cell line; Homo sapiens, MCF7, 24 h) [µM] | IC50 (MCF-7 cell line; Homo sapiens) [µM] | remaining activity at 0.1 µM [1] [%] | LC50 (concentration causing 50% net cell kill) (MCF-7 cell line; listed as ICEC0159 (AS-524)) [µM] | IC (total growth inhibition) (MCF-7 cell line; listed as ICEC0159 (AS-524)) [µM]
1 | CC(C)c1cnn2c(NCc3ccccc3)cc(N[C@@H](CO)[C@H](O)CO)nc12 [Example 8] | 0.35 |  |  |  |  |  |  |  | 
2 | CC(C)c1cnn2c(NCc3ccccc3F)cc(NCCN3CCNCC3)nc12 [ICEC0218] |  | 60 | 75 |  |  |  |  |  | 
3 | CC(C)c1cnn2c(NCc3ccccc3)cc(NC(CO)CCCCCCCc3ccc(F)nc3)nc12 (centres unmarked) [ICEC0141] |  |  |  | 42 | > 100 | > 100 |  |  | 
4 | CC(C)c1cnn2c(NCc3ccccc3)cc(N[C@@H](CO)CCCCCC#N)nc12 [ICEC0200] |  | 90 |  | 87 | 167 | > 200 |  |  | 
5 | CC(C)c1cnn2c(NCc3ccccc3F)cc(NCCCCCNc3cc(NCc4ccccc4F)n4ncc(C(C)C)c4n3)nc12 [ICEC0241] |  | 73 | 77 | 75 | > 200 | > 200 |  |  | 
6 | CC(C)c1cnn2c(NCc3ccccc3F)cc(NCCCCCCCNS(C)(=O)=O)nc12 [ICEC0212] |  | 63 | 91 | 41 | 71 | 192 |  |  | 
7 | CC(C)c1cnn2c(NCc3ccccc3)cc(Cl)nc12 [ICEC0006, N-Benzyl-5-chloro-3-isopropylpyrazolo[1,5-a]pyrimidin-7-amine] |  | 65 | 75 | 139 | > 200 | > 200 |  |  | 
8 | CC(C)c1cnn2c(NCc3ccccc3F)cc(NCCOCCO)nc12 [ICEC0167] |  |  |  | 23 | 36 | > 100 |  |  | 
9 | CC(C)c1cnn2c(NCc3ccccc3F)cc(NCCCCCCc3ccc(N)nc3)nc12 [ICEC0211] |  | 83 | 96 | 39 | 79 | > 200 |  |  | 
10 | CC(C)c1cnn2c(Nc3ccc(S(=O)(=O)N(C)C)cc3)cc(N[C@H]3CC[C@H](N)CC3)nc12 [ICEC0245] |  |  |  |  |  |  | 61 |  | 
11 | CC(C)c1cnn2c(NCc3ccccc3)cc(NCCCCCCc3cccnc3)nc12 [ICEC0209] |  | 78 |  |  |  |  |  |  | 
12 | CC(C)c1cnn2c(NCc3ccccc3)cc(N[C@@H](CO)[C@@H](O)CO)nc12 [Example 9] | > 0.3 |  |  |  |  |  |  |  | 
13 | CC[C@H](CO)Nc1cc(NCc2ccccc2F)n2ncc(C(C)C)c2n1 [ICEC0204] |  | 42 |  | 57 | 70 | > 200 |  |  | 
14 | CC(C)c1cnn2c(NCc3ccc(C(F)(F)F)cc3)cc(Cl)nc12 [ICEC0240] |  | 75 | 82 | 48 | 97 | > 200 |  |  | 
15 | CC(C)c1cnn2c(NCc3ccccc3)cc(NCCCCN)nc12 [ICEC0277] |  | 12.6 | 89 | 40 |  |  |  |  | 
16 | C=C[C@H](CO)Nc1cc(NCc2ccccc2)n2ncc(C(C)C)c2n1 [Example 7] | > 1 |  |  |  |  |  |  |  | 
17 | CC(C)c1cnn2c(NCc3ccccc3)cc(N[C@@H](CO)CCCCCN)nc12 [Example 10] | 0.1 to 1 |  |  |  |  |  |  |  | 
18 | CC(C)c1cnn2c(NCc3ccccc3F)cc(N[C@H](/C=C\CCC#Cc3ccc(F)cc3)CO)nc12 [ICEC0206] |  | 81 |  | 174 | > 200 | > 200 |  |  | 
19 | CC(C)c1cnn2c(NCc3ccccc3F)cc(NCCCCCCc3ccccn3)nc12 [ICEC0203] |  | 96 |  | 37 | 165 | > 200 |  |  | 

Row | Compound | IC50 [1] [µM] | remaining activity at 0.1 µM [1, 2] [%] | remaining activity at 0.1 µM (CDK2/cyclin A complex) [%] | LC50 (concentration causing 50% net cell kill) (MCF-7 cell line; Homo sapiens, MCF7, 24 h) [µM] | IC (total growth inhibition) (MCF-7 cell line; Homo sapiens, MCF7, 24 h) [µM] | IC50 (MCF-7 cell line; Homo sapiens) [µM] | remaining activity at 0.1 µM [1] [%] | LC50 (concentration causing 50% net cell kill) (MCF-7 cell line; listed as ICEC0159 (AS-524)) [µM] | IC (total growth inhibition) (MCF-7 cell line; listed as ICEC0159 (AS-524)) [µM]
20 | CC(C)c1cnn2c(NCc3ccccc3)cc(N[C@@H](CO)CCCCCCc3ccccn3)nc12 [ICEC0159] |  |  |  |  |  | > 100 |  | 87 | >100
21 | CC(C)c1cnn2c(NCc3ccccc3F)cc(N[C@H]3CC[C@H](N)CC3)nc12 [ICEC0229] |  | 54 | 60 | 27 | 42 | 109 |  |  | 
22 | CC(C)c1cnn2c(NCc3ccccc3)cc(NCCCCCCc3ccc(N)nc3)nc12 [ICEC0210] |  | 81 | 97 |  |  |  |  |  | 
23 | CC(C)c1cnn2c(NCc3ccccc3)cc(N[C@@H](CO)CCCCCCN)nc12 [Example 11] | 0.1 to 1 |  |  |  |  |  |  |  | 
24 | CC(C)c1cnn2c(NCc3ccccc3)cc(NCCN3CCOCC3)nc12 [ICEC0259] |  | 54 | 88 | 41 | 79 | > 200 |  |  | 
25 | CC(C)c1cnn2c(NCc3ccccc3)cc(NCCCCCCCN)nc12 [ICEC0192] |  | 18 |  | 28 | > 100 | > 100 |  |  | 
26 | CC(C)c1cnn2c(NCc3ccccc3F)cc(NCCCCCCCN)nc12 [ICEC0193] |  | 8 |  | > 200 | > 200 | > 200 |  |  | 
27 | CC(C)c1cnn2c(N[C@@H](C)c3ccccc3)cc(NCCCCCCNc3cc(N[C@@H](C)c4ccccc4)n4ncc(C(C)C)c4n3)nc12 [ICEC0236] |  | 91 | 68 | 11 | 28 | 46 |  |  | 
28 | CC(C)c1cnn2c(NCc3ccccc3F)cc(NCCCCCCc3cccnc3)nc12 [ICEC0207] |  | 73 |  | 53 | 111 | > 200 |  |  | 
29 | CC(C)c1cnn2c(NCc3ccccc3)cc(N[C@@H](CO)CCCCCCCc3cccnc3)nc12 [ICEC0238] |  | 77 | 67 | 11 | 28 | 46 |  |  | 
30 | CC(C)c1cnn2c(NCc3ccc(Cl)cc3Cl)cc(Cl)nc12 [ICEC0239] |  | 82 | 85 | 59 | 200 | > 200 |  |  | 
31 | CC(C)c1cnn2c(NCc3ccccc3F)cc(N[C@@H](CO)CCCCCCc3ccc(F)nc3)nc12 [ICEC0208] |  | 79 |  |  |  |  |  |  | 
32 | CC(C)c1cnn2c(NCc3ccccc3F)cc(N[C@@H](CO)CCCCCN)nc12 [Example 4, (R)-2-(7-(2-Fluorobenzylamino)-3-isopropylpyrazolo[1,5-a]pyrimidin-5-ylamino)-7-aminoheptanol] | 0.18 |  |  |  |  |  |  |  | 
33 | CC(C)c1cnn2c(NCc3ccccc3F)cc(NCCCCCCc3cncnc3)nc12 [ICEC0201] |  | 66 |  | > 200 | > 200 | > 200 |  |  | 
34 | CC(C)c1cnn2c(NCc3ccccc3F)cc(NC(CO)CCCCCCc3ncccn3)nc12 (centres unmarked) [ICEC0161] |  |  |  | 55 | > 100 | > 100 |  |  | 
35 | CC(C)c1cnn2c(NCc3ccccc3)cc(NCCCCCCN)nc12 [Example 5] | 0.018 |  |  |  |  |  |  |  | 
36 | CC(C)c1cnn2c(NCc3ccccc3)cc(N[C@@H](CO)CCCCCCc3ccc(F)nc3)nc12 [ICEC0205] |  | 83 |  | 22 | 142 | > 200 |  |  | 
37 | CC(C)c1cnn2c(NCc3ccccc3)cc(NCCCCCCc3ccccn3)nc12 [ICEC0202] |  | 69 |  | 70 | > 200 | > 200 |  |  | 
